Measured values as given in patent US20060276534A1, “Methods of decreasing calcification” (Amgen Inc., priority 2005, published 2006).

How the values were obtained:
5/6 Nx rats [1] = assay: Blood chemistries in 5/6 nephrectomy rat model of CKD (Example 1); assay type: in vivo; conditions: 14 days
Source text: Male Wistar rats weighing 250 g were purchased from the Animal Breeding Facility of the University of Cordoba (Spain). Rats were housed with a 12 hr/12 hr light/dark cycle and given ad libitum access to normal diet (calcium=0.9%, phosphorus=0.6%). The experimental protocols were reviewed and approved by the Ethics Committee for Animal Research of the Universidad de Cordoba (Spain), and all animals received humane care in compliance with the Principles of Laboratory Animal Care, formulated by the National Society for Medical Research and the Guide for the Care and Use of Laboratory Animals prepared by the National Academy of Science.
(§1) The rodent model of CKD used in these studies was induced by 5/6 nephrectomy (5/6 Nx), a two-step procedure that reduces the original functional renal mass by five-sixths (5/6). In the first step, animals were anesthetized using xylazine (5 mg/kg, ip) and ketamine (80 mg/kg, ip), a 5-8 mm incision was made on the left medio-lateral surface of the abdomen, and the left kidney was exposed. The left renal artery was visualized and 2 of the 3 branches tightly ligated, after which the kidney was inspected for infarct and returned to an anatomically neutral position within the peritoneal cavity. The abdominal wall and skin incisions were closed with suture, and the rat placed back into its home cage. After 1 week of recovery, the animal was reanesthetised and a 5-8 mm incision was made on the right medio-lateral surface of the abdomen. The right kidney was exposed and unencapsulated, the renal pedicle clamped and ligated, and the kidney was removed. The ligated pedicle was returned to a neutral anatomical position and the abdomen and skin incisions closed with suture materials. The animal was allowed to recover in its home cage. Sham-operated animals underwent the same procedures without renal manipulation.
(§2) After the second surgery, the diet was changed to one with decreased calcium (0.6%) and increased phosphorus (0.9%) content. The rats were randomized (based on the normal distribution of baseline body weights) into 6 experimental groups: sham-operated (n=13) (used as a control), 5/6 Nx+vehicle (saline) (n=10), 5/6 Nx+calcitriol 80 ng/kg (Calcijex, Abbot) ip every other day (n=10), 5/6 Nx+Compound A 1.5 mg/kg per day sc (n=10) (Amgen, Thousand Oaks, Calif. USA), 5/6 Nx+Compound A 3 mg/kg per day sc (n=10), or 5/6 Nx+combination calcitriol 80 ng/kg and Compound A 1.5 mg/kg (n=10) dosed as above. Treatments were maintained for 14 days. The rats were sacrificed by aortic puncture and exsanguination under general anesthesia (ip sodium thiopenthal) 24 hours after the last dose of drug.
Blood for chemistry analyses was collected from the abdominal aorta at the end of the treatment period. Blood for measurements of ionized calcium levels was collected in heparinized syringes and immediately analyzed using a Ciba-Corning 634 ISE Ca++/pH Analyzer (Ciba-Corning Essex, England). Afterwards, plasma was separated by centrifugation and stored at −70° C. until assayed. PTH levels were quantified according to the vendor's instructions using a rat PTH(1-34) immunoradiometric assay kit (Immunotopics, San Clemente, CA). Serum creatinine, phosphorous, and total calcium were measured by spectrophotometry (Sigma Diagnostics, St. Louis, Mo., USA).
Values were expressed as the mean±standard error (SE). The difference between means for two different groups was determined by t test; the difference between means for three or more groups was assessed by ANOVA. P<0.05 was considered significant.

5/6 Nx rats [2] = assay: Ex vivo assessment of vascular calcification: aortic calcium and phosphorus content, von Kossa staining (Example 1); assay type: in vivo, rat; conditions: 14 days; for Mineral deposits in the aorta (von Kossa staining): single agents
Experimental: as §1, §2
Following sacrifice, the abdominal aortas were dissected and divided in two parts. One part was fixated in 10% buffered formalin and subsequently sectioned and stained for mineralization by the von Kossa method. The other was dimineralized in 10% formic acid, and the arterial tissue calcium and phosphorous content measured in the supernatant according to the method described by Price et al Arterioscler Thromb Vasc Biol 20:317-27, 2000.

5/6 Nx rats [3] = assay: Vascular calcification regression in 5/6 Nx rats on high phosphorus diet with calcitriol; assay type: in vivo, rat
Experimental: Animals were 5/6 Nx as previously described and placed on a high phosphorus diet (0.6% Ca; 1.2% P) for 14 days. Animals were divided into four groups (A,B,C and D n=4-5 animals per group), one group (A) received vehicle (saline 0.2 ml i.p.) while the remaining three groups (B,C and D) received calcitriol (80 ng/kg every other day i.p.) for the course of the study (28 days). On day 14 two groups (C and D) were converted to normal diet (Ca 0.9%; P 0.6%) and group C was administered Compound A at 3 mg/kg daily p.o.), while group D received vehicle (0.5 ml of 10% captisol in water p.o.) daily. The remaining groups (A and B) were kept on the high phosphorus diet and administered either calcitriol or vehicle for the course of the study (28 days). On day 28 all animals were sacrificed (CO2) and the aortas removed for determining aortic P and Ca content (mg/g of tissue) as previously described

5/6 Nx rats [4] = assay: Ca and P content of thoracic aorta in 5/6 Nx rats given paricalcitol and/or Compound B (Example 3); assay type: in vivo, rat; conditions: 14 days
Source text: Wistar rats (200-250g), fed a 0.6% Ca and 1.2% P diet, were 5/6 nephrectomized (5/6 Nx) or sham-operated (sham).

5/6 Nx rats [5] = assay: Soft tissue mineralization by Von Kossa staining in 5/6 Nx rats (Example 4); assay type: in vivo, rat; conditions: 5/6 Nx rats, 14 days
Source text: Wistar rats (200-250g), fed a 0.6% Ca and 1.2% P diet, were 5/6 nephrectomized (5/6 Nx).

5/6 Nx rats [6] = assay: Serum PTH, ionized Ca, P and creatinine in 5/6 Nx rats given paricalcitol and/or Compound B (Example 3); conditions: 14 days
[7] = Compound A 1.5 mg/kg per day sc, calcitriol 80 ng/kg ip every other day, or both, mean±SE
[8] = Compound A 3 mg/kg per day sc, mean±SE
[9] = concurrent treatment with Compound A 1.5 mg/kg and calcitriol 80 ng/kg
[10] = Group C: normal diet from day 14 + Compound A 3 mg/kg daily p.o. while still receiving calcitriol, vs group D, day 28
[11] = 5/6 Nx rats, compared to vehicle treated 5/6 Nx animals (Compound B also vs sham)
[12] = thoracic aorta, 5/6Nx rats, paricalcitol 240 ng/kg every 48 hr ip, Compound B 1.5 mg/kg every 48 hr sc
[13] = 5/6 Nx rats, compared to 5/6 Nx+vehicle
[14] = serum, 5/6Nx rats, paricalcitol 240 ng/kg every 48 hr ip, Compound B 1.5 mg/kg every 48 hr sc
[15] = Group B: high phosphorus diet + calcitriol 80 ng/kg every other day i.p. 28 days, vs Group A (vehicle)
[16] = calcitriol 80 ng/kg every 48 hr ip

COc1cccc([C@@H](C)NCCCc2ccccc2Cl)c1.Cl [Compound A, N-(3-[2-chlorophenyl]-propyl)-R-α-methyl-3-methoxybenzylamine HCl]
Serum PTH concentration (5/6 Nx rats [1]; Compound A 1.5 mg/kg per day sc alone or with calcitriol 80 ng/kg, mean±SE): 73.5 ± 12.8 pg/mL
Calcitriol mediated increase in serum creatinine levels (5/6 Nx rats [1]; Compound A 1.5 mg/kg per day sc included with calcitriol 80 ng/kg): decreased
Serum ionized calcium levels (5/6 Nx rats [1]; [7]): 1.20 ± 0.02 mmol/L
Serum phosphorus levels (5/6 Nx rats [1]; [7]): 6.6 ± 0.3 mg/dL
Serum ionized calcium levels (5/6 Nx rats [1]; [8]): 1.22 ± 0.02 mmol/L
Serum phosphorus levels (5/6 Nx rats [1]; [8]): 6.9 ± 0.4 mg/dL
Raised phosphorus content in the aortic tissue, in words (5/6 Nx rats [2]; Compound A alone 1.5 or 3 mg/kg): did not
Development of aortic calcification (von Kossa staining) (5/6 Nx rats [2]; addition of Compound A 1.5 mg/kg to the calcitriol-treatment regimen): prevented the development of aortic calcification
Calcitriol-induced increase in aortic calcium (5/6 Nx rats [2]; [9]): significantly (P=0.002) attenuated
Calcitriol-induced increase in aortic phosphorus (5/6 Nx rats [2]; [9]): significantly (P=0.013) attenuated
Mineral deposits in the aorta (von Kossa staining) (5/6 Nx rats [2]): not observed
Aortic calcium content (5/6 Nx rats [3]; [10]): lower
Aortic phosphorus content (5/6 Nx rats [3]; [10]): significant (p<0.05) reduction

C[C@H](/C=C/[C@H](C)C(C)(C)O)[C@H]1CC[C@H]2/C(=C/C=C3C[C@@H](O)C[C@H](O)C3)CCC[C@]12C [Paricalcitol, paricalcitol, reference compound]
Aortic Ca content, change in words (5/6 Nx rats [4]; [11]): significantly increased
Aortic P content, change in words (5/6 Nx rats [4]; [11]): significantly increased
Aortic Ca (5/6 Nx rats [4]; [12]): 9.5 ± 2.2 mg/g
Aortic P (5/6 Nx rats [4]; [12]): 6.2 ± 2.4 mg/g
Mineralization in kidney (Von Kossa staining) (5/6 Nx rats [5]; paricalcitol 240 ng/kg every 48 hr ip): increased mineralization
Blood ionized calcium, change in words (5/6 Nx rats [6]; [13]): no changes
Creatinine, change in words (5/6 Nx rats [6]; [13]): no changes
Serum P levels, change in words (5/6 Nx rats [6]; [13]): no changes
Serum PTH levels, change in words (5/6 Nx rats [6]; [13]): significantly (p<0.05) decreased
Creatinine (5/6 Nx rats [6]; 5/6Nx rats, paricalcitol 240 ng/kg every 48 hr ip, Compound B 1.5 mg/kg every 48 hr sc): 2.32 ± 0.43 mg/dL
P (5/6 Nx rats [6]; [14]): 14.7 ± 2.1 mg/dL
PTH (5/6 Nx rats [6]; [14]): 250 ± 61 pg/mL

C=C1/C(=C\C=C2/CCC[C@]3(C)[C@@H]([C@H](C)CCCC(C)(C)O)CC[C@@H]23)C[C@@H](O)C[C@@H]1O [calcitriol, reference compound]
Serum ionized calcium levels (5/6 Nx rats [1]; [7]): 1.28 ± 0.02 mmol/L
Serum phosphorus levels (5/6 Nx rats [1]; [7]): 10.2 ± 0.9 mg/dL
Serum creatinine levels (5/6 Nx rats [1]; calcitriol 80 ng/kg ip every other day, alone or with Compound A 1.5 mg/kg per day sc, mean±SE): 1.05 ± 0.07 mg/dL
Phosphorus content in the aortic tissue (5/6 Nx rats [2]; calcitriol 80 ng/kg ip every other day): 2.1±1 mg/g tissue
Aortic calcium content (5/6 Nx rats [2]; calcitriol 80 ng/kg ip every other day, mean±SE): 4.2±1.1 mg/g tissue
Mineral deposits in the aorta (von Kossa staining) (5/6 Nx rats [2]): marked von Kossa staining
Aortic calcium content (5/6 Nx rats [3]; [15]): significant (p<0.05) increases
Aortic phosphorus content (5/6 Nx rats [3]; [15]): significant (p<0.05) increases
Mineralization in heart (Von Kossa staining) (5/6 Nx rats [5]; [16]): increased mineralization
Mineralization in kidney (Von Kossa staining) (5/6 Nx rats [5]; [16]): increased mineralization
Mineralization in lung (Von Kossa staining) (5/6 Nx rats [5]; [16]): increased mineralization
